From article PMC11284600, “Many human pharmaceuticals are weak inhibitors of the cytochrome P450 system in rainbow trout (Oncorhynchus mykiss) liver S9 fractions” (Frontiers in Toxicology, 2024)
Where a name gives a salt, the structure may show the parent alone. Read-outs that look alike come from different tables or passages of the source. Blank lines part the entries; values can stand above or below the compound they belong to.

Legend:
[1] = test system: CYP1A-like ethoxyresorufin O-deethylase (EROD) activity; assay: in vitro; settings: both, Christophersen, Bornhoeved, rainbow trout (Oncorhynchus mykiss); for inhibition at 10 min: pH 7.8
Method: (§1) Commercially available rainbow trout (O. mykiss) liver S9 fractions were used as the enzyme source for the in vitro P450 inhibition assays (RTL-S9, total protein concentration 20 mg/mL, Primacyt Cell Culture Technology GmbH).
(§2) The inhibitory impacts of the test substances toward the rainbow trout liver P450 system in vitro were assessed based on EROD and BFCOD as the marker reactions for CYP1A- and CYP3A-like isoenzyme activities, respectively. […] In this study, the EROD (CYP1A) and BFCOD (CYP3A) activities were determined using 0.5 mg/mL RT-S9 (total protein) concentration and 1 or 2 mM NADPH, respectively. […] All incubations were performed in duplicate in a total volume of 100 µL of potassium phosphate buffer (0.1 M, pH 7.8), at 11°C ± 1°C on a thermostated orbital shaker (LLG Labware). The reactions were terminated by the addition of 37.5 μL of the quenching solution (0.5 M Trizma base/acetonitrile 20:80, v/v). […] The quantitation of the metabolites (resorufin or HFC) was based on linear regression of the respective standards prepared in the potassium phosphate buffer. Negative control incubations were performed separately without the marker substrate, without cofactors, and without RT-S9 to ensure that the detected fluorescence signals arise from the metabolic conversion of the marker substrates (ER or BFC) into their respective metabolites (resorufin or HFC, respectively).
(§3) In this study, the preincubation was performed using three different protocols A-C (Table 2). In the first protocol, the test substance (each separately at six different concentrations between 0.01 and 500 µM) and RT-S9 were preincubated without any cofactors, and the marker reaction was initiated by the addition of the marker substrate (ER or BFC) and NADPH (Protocol A). This enabled the determination of the inhibitory impact of the parent form of the test substance on the respective marker activity. In the second protocol, the test substance and RT-S9 were preincubated together with NADPH, and the marker reaction was initiated by the addition of the marker substrate (Protocol B). In this manner, the test substance could undergo P450 metabolism already during the preincubation step, which may reduce its concentration and thus the inhibitory impact toward the marker reactions, or result in the formation of reactive or inhibitory metabolites, which typically increases the inhibitory impact compared with the parent form (Protocol A). […] In this manner, the test substance could undergo both P450 and phase II metabolism already during the preincubation step, which may likewise reduce its concentration and inhibitory impact toward the marker reactions, and even help eliminate the possible reactive metabolites via glutathione conjugation. […] Additionally, positive control incubations of the marker substrates (ER or BFC) without the test substance (zero inhibitor concentration) were included in each series to determine the basal EROD or BFCOD activity in RT-S9.
(§4) The residual solvent concentration was kept constant at all inhibitor concentrations, including zero, to eliminate its impact on the IC50 concentrations derived from the empirical data. The IC50 shifts for Protocols B and C were calculated according to Eq. 2: IC50 shift=IC50,Protocol A/IC50,Protocol B or Protocol C (2)
(§5) In this manner, the impact of the test substance’s own metabolism (during the preincubation step) on the inhibitory impact could be evaluated.

[2] = molecular target: T1, CYP3A-like BFCOD activity (Oncorhynchus mykiss, UniProt O42563); assay: BFCOD inhibition in RT-S9 (IC50 shift assay); settings: both, Christophersen, Bornhoeved, rainbow trout (Oncorhynchus mykiss)
T1 sequence (O42563 1-518): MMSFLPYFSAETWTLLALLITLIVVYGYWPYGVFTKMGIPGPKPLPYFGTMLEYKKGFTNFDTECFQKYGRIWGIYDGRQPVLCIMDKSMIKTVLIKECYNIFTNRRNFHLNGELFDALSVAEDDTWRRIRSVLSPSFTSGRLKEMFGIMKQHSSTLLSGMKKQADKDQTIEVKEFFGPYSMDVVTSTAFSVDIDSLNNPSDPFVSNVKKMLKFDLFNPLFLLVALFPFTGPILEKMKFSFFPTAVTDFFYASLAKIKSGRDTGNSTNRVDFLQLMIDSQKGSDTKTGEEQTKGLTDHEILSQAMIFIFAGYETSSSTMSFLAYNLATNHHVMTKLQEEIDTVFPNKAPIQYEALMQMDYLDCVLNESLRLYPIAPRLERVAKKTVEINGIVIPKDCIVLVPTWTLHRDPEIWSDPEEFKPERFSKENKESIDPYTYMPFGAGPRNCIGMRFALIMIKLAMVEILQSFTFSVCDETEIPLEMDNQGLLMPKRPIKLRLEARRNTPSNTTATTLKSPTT
Method: as §1, §2, §3, §4, §5

[3] = Unbound fraction in RT-S9 by rapid equilibrium dialysis; assay type: in vitro ADME, rainbow trout (Oncorhynchus mykiss); settings: 10 µM test substance, 1 mg/mL RT-S9, pH 7.8, 11°C, n = 3, read-out: Unbound fraction (fU,RT-S9)
Method: The unbound (free) fractions of the test substances in RT-S9 (fU,RT-S9) were determined using rapid equilibrium dialysis assay (RED, Thermo Fisher Scientific), which exploits two-compartment inserts separated by a dialysis membrane with a molecular weight cut-off of 8,000 Da. In the RED assay, each test pharmaceutical (10 μM) was incubated in triplicate with RT-S9 (1 mg/mL) in 50 mM potassium phosphate buffer (pH 7.8) in a total volume of 300 µL on one side of the membrane (protein-containing chamber), and 350 μL of the plain phosphate buffer on the other side (protein-free chamber). To reach equilibrium, the samples were incubated on an orbital shaker (C25KC Incubator shaker, New Brunswick Scientific, 120 rpm) at 11°C for 4 h. Next, 50 µL aliquots were collected from both chambers separately and diluted by adding 50 µL of the plain buffer (to the protein-containing sample) or 50 μL of 1 mg/mL RT-S9 in the buffer (to the protein-free sample). Finally, the RT-S9 protein was precipitated by the addition of acetonitrile (+200 μL) to both samples separately, followed by incubation on ice for 30 min and centrifugation (16100 g, 15 min). The test substance concentrations in the supernatants of both samples were determined using liquid chromatography. The instrumentation and the analytical methods used for chromatographic analyses are described in detail in the Supplementary Table S2. The unbound fractions of the test substances in RT-S9 (fU,RT-S9) were calculated according to Eq. 3: fU,RT−S9=1− PC−PF/PC (3) where [PC] and [PF] are the test substance concentrations in the samples collected from protein-containing and protein-free chambers, respectively. To account for the test substance’s binding to the RT-S9, the nominal IC50 values were corrected for unbound fraction (fU,RT-S9) according to Eq. 4: Unbound IC50=Nominal IC50×fU,RT−S9 (4)

Human CYP3A = settings: cited from earlier work; for Human CYP3A interactions: substrate status: ref Drugbank unless otherwise stated (Dragovic et al., 2013; Niwa et al., 2005)
[4] = parameters: method as in PubChem; settings: (e) empirical; ref PubChem; cited from earlier work
CYP1A-like EROD activity = assay: in vitro; settings: both, Christophersen, Bornhoeved, rainbow trout (Oncorhynchus mykiss)
Method: as §1, §2, §3, §4, §5

[5] = molecular target: T2, CYP3A-like 7-benzyloxy-4-trifluoromethylcoumarin O-debenzylase (BFCOD) activity in rainbow trout liver S9 fractions (Oncorhynchus mykiss, UniProt O42563); assay: BFCOD inhibition in RT-S9 (IC50 shift assay); settings: within the tested concentration range
T2 sequence (O42563 1-518): T1 sequence (O42563 1-518)
Method: as §1, §2, §3, §4, §5

[6] = test system: CYP1A-like ethoxyresorufin O-deethylase (EROD) activity in rainbow trout liver S9 fractions; assay: in vitro
Method: as §1, §2, §3, §4, §5

Human CYP1A = settings: ref Drugbank unless otherwise stated (Dragovic et al., 2013; Conard and Ober 1984; Niwa et al., 2005); cited from earlier work
[7] = pH 7.8, EROD inhibition in RT-S9, Nominal IC50
[8] = pH 7.8, EROD inhibition in RT-S9, Unbound IC50
[9] = s9, pH 7.8, BFCOD inhibition in RT-S9, Nominal IC50, Protocol B: 30 min preincubation w/NADPH (2 mM)
[10] = s9, pH 7.8, BFCOD inhibition in RT-S9, Nominal IC50, Protocol C: 30 min preincubation w/all cofactors (NADPH, UDPGA, PAPS, glutathione)
[11] = rainbow trout liver S9 fractions (RT-S9)

SMILES: CN1CCCC(n2nc(Cc3ccc(Cl)cc3)c3ccccc3c2=O)CC1 (stereo not drawn) [Azelastine, azelastine hydrochloride]
- inhibition at 10 min [1]: > 50%
- IC50 at 10 min [1, 7]: 28 ± 2 µM
- IC50 at 10 min [1, 8]: 3.8 ± 0.5 µM
- IC50 at 20 min ([2]; s9, pH 7.8): > 100 µM
- inhibition at 20 min ([2]; s9, pH 7.8): ≤ 50%
- IC50 at 20 min [2, 9]: > 100 µM
- IC50 at 20 min [2, 10]: > 100 µM
- fraction unbound at 4 h, 10 µM [3, 11]: 0.14 ± 0.01
- Human CYP3A interactions: inhibitor status (Human CYP3A; ref Drugbank unless otherwise stated (Cohen et al., 2000; Guo et al., 1997; Niwa et al., 2005)): Inhibitor (m)

- fraction unbound at 4 h, 10 µM ([3]; rainbow trout (Oncorhynchus mykiss), rainbow trout liver S9 fractions (RT-S9)): > 0.9
- fraction unbound at 4 h, 10 µM [3, 11]: 0.91 ± 0.42
SMILES: CCN(CC)C(=S)SSC(=S)N(CC)CC [Disulfiram, disulfiram]
- LogKOW [4]: 3.88 (e)

SMILES: Clc1ccc2c(c1)CCc1cccnc1C2=C1CCNCC1 [Desloratadine, desloratadine]
- fraction unbound at 4 h, 10 µM [3, 11]: 0.15 ± 0.03

SMILES: COc1ccc2nc([S@@+]([O-])Cc3ncc(C)c(OC)c3C)[nH]c2c1 [Esomeprazole, esomeprazole magnesium hydrate]
- IC50 shift at 10 min (CYP1A-like EROD activity; s9, pH 7.8, EROD inhibition in RT-S9, IC50 shift (A/B)): 2.3 ± 0.7
- IC50 shift at 10 min (CYP1A-like EROD activity; s9, pH 7.8, EROD inhibition in RT-S9, IC50 shift (A/C)): 1.7
- inhibition at 10 min [1]: > 50%
- IC50 at 10 min [1, 8]: 3 ± 0.8 µM
- IC50 at 20 min ([2]; s9, pH 7.8): > 100 µM
- inhibition at 20 min ([2]; s9, pH 7.8): ≤ 50%
- IC50 shift at 20 min ([2]; s9, pH 7.8, BFCOD inhibition in RT-S9, IC50 shift (A/B), IC50 Protocol A / IC50 Protocol B, TDI if ≥1.5): 1.2 ± 0.2
- IC50 shift at 20 min ([2]; s9, pH 7.8, BFCOD inhibition in RT-S9, IC50 shift (A/C), IC50 Protocol A / IC50 Protocol C): 0.8
- IC50 at 20 min [2, 9]: > 100 µM
- IC50 at 20 min [2, 10]: > 100 µM
- fraction unbound at 4 h, 10 µM [3, 11]: 0.36 ± 0.08
- Human CYP3A interactions: substrate status (Human CYP3A): Substrate

SMILES: CCN1CCCC1CNC(=O)c1cc(S(N)(=O)=O)ccc1OC (stereo not drawn) [Sulpiride, sulpiride]
- BFCOD inhibition in RT-S9 (in words) [5]: did not significantly inhibit

SMILES: COc1cc2nc(N3CCN(C(=O)c4ccco4)CC3)nc(N)c2cc1OC [Prazosin, prazosin hydrochloride]
- EROD inhibition in RT-S9 (in words) [6]: inhibited selectively only EROD activity
- inhibition at 10 min [1]: > 50%
- IC50 at 10 min [1, 7]: 21 ± 2 µM
- IC50 at 20 min ([2]; s9, pH 7.8): > 25 µM

- fraction unbound at 4 h, 10 µM [3, 11]: 0.27 ± 0.05
SMILES: Cc1ccccc1C(OCCN(C)C)c1ccccc1 (stereo not drawn) [Orphenadrine, orphenadrine citrate]
- LogKOW [4]: 3.77 (e)

SMILES: CN1CCN(C2=Nc3cc(Cl)ccc3Nc3ccccc32)CC1 [Clozapine, clozapine]
- inhibition at 10 min [1]: > 50%
- IC50 at 10 min [1, 7]: 46 ± 9 µM
- IC50 at 10 min [1, 8]: ~10 µM
- inhibition at 20 min ([2]; s9, pH 7.8): ≤ 50%
- IC50 at 20 min ([2]; s9, pH 7.8, BFCOD inhibition in RT-S9, Nominal IC50, Protocol A: 30 min preincubation without cofactors, extrapolated): > 100 µM
- IC50 at 20 min [2, 9]: > 100 µM
- IC50 at 20 min [2, 10]: > 100 µM
- IC50 at 20 min ([2]; s9, pH 7.8, BFCOD inhibition in RT-S9, Unbound IC50, nominal IC50 of Protocol A × fU,RT-S9 (Eq. 4)): 10 to 30 µM
- fraction unbound at 4 h, 10 µM [3, 11]: 0.21 ± 0.05
- LogKOW [4]: 3.23 (e)
- Human CYP1A interactions: substrate status (Human CYP1A): Substrate

SMILES: Cc1ncsc1CCCl [Clomethiazole, clomethiazole hydrochloride]
- EROD inhibition in RT-S9 (in words) ([6]; within the tested concentration range): did not significantly inhibit
- EROD inhibition in RT-S9 (in words) ([6]; within the tested concentration range, listed as Chlomethiazole): no significant EROD inhibition
- BFCOD inhibition in RT-S9 (in words) [5]: did not significantly inhibit
- fraction unbound at 4 h, 10 µM ([3]; rainbow trout (Oncorhynchus mykiss)): > 0.9
- Human CYP3A interactions: substrate status (Human CYP3A): Substrate

- fraction unbound at 4 h, 10 µM [3, 11]: 0.24 ± 0.06
SMILES: OCCOCCN1CCN(C2=Nc3ccccc3Sc3ccccc32)CC1 [Quetiapine, quetiapine hemihumarate]
- LogKOW [4]: 2.81 (e)

SMILES: CCNC(=O)CCC/C=C\C[C@@H]1[C@@H](/C=C/[C@@H](O)CCc2ccccc2)[C@H](O)C[C@@H]1O [Bimatoprost, bimatoprost]
- BFCOD inhibition in RT-S9 (in words) [5]: did not significantly inhibit
- LogKOW [4]: 3.2 (e)
- Human CYP3A interactions: substrate status (Human CYP3A): Substrate

SMILES: CC(C)c1c(C(=O)Nc2ccccc2)c(-c2ccccc2)c(-c2ccc(F)cc2)n1CC[C@@H](O)C[C@@H](O)CC(=O)O [Atorvastatin, atorvastatin calcium trihydrate]
- LogKOW [4]: 6.36 (e)
